Reference: patent US11827628B2, “Compositions and methods for inhibition of the JAK pathway” (Rigel Pharmaceuticals, Inc., priority 2005, dated 2023)

System: up-regulation of ICAM-1 (CD54) by IFNγ in A549 lung epithelial cells
Assay: A549 Epithelial Line Stimulated with IFNγ (ICAM-1 surface expression, FACS)
Format: cell-based, human
Settings: A549 epithelial line stimulated with IFNγ; ICAM-1 expression by FACS; read-out: IC50, Example 43
Outline: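 A549 cells pre-incubated 1 h with compound (30 μM to 14 nM, 5% FBS, 0.3% DMSO), then stimulated with IFNγ (75 ng/mL) for 24 h. Surface ICAM-1 stained with APC anti-CD54 and read by flow cytometry; geometric mean of live-gated events plotted against concentration for EC50.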

Compound | IC50
5-Fluoro-N4-[4-(3-methyl-1,2,4-oxadiazol-3-yl)methyleneoxyphenyl]-N2-[(3-N-propanamido)sulfonylphenyl)]-2,4-pyrimidinediamine [Compound I-262] | 3.68 µM
Cc1ccc(Nc2ncc(F)c(Nc3ccc(OC4CCCN(C)C4)c(Cl)c3)n2)cc1S(N)(=O)=O (racemic) [II-3, Racemic N2-(3-aminosulfonyl-4-methylphenyl)-N4-{3-chloro-4-[(1-methylpiperidin-3-yl)oxy]phenyl}-5-fluoro-2,4-pyrimidinediamine] | 11.9 µM
N#CCOc1ccc(Nc2nc(Nc3cccc(S(N)(=O)=O)c3)ncc2F)cc1 [Compound I-17, N2-(3-Aminosulfonyl)phenyl-N4-(4-cyanomethoxy)phenyl-5-fluoro-2,4-pyrimidinediamine] | 2.35 µM
CN1CCN(S(=O)(=O)c2cccc(Nc3ncc(F)c(Nc4ccc(OCC#N)cc4)n3)c2)CC1 [Compound I-19, N4-(4-Cyanomethoxy)phenyl-5-fluoro-N2-[3-(4-methylpiperazin-1-yl)sulfonyl]phenyl-2,4-pyrimidinediamine] | 24.9 µM
Cc1ccc(Nc2ncc(F)c(Nc3ccc(OCC#N)cc3)n2)cc1S(N)(=O)=O [Compound I-20, N2-(3-Aminosulfonyl-4-methyl)phenyl-N4-(4-cyanomethoxy)phenyl-5-fluoro-2,4-pyrimidinediamine] | 6.54 µM
N#CCOc1ccc(Nc2nc(Nc3ccc(Cl)c(S(N)(=O)=O)c3)ncc2F)cc1 [Compound I-21, N2-(3-Aminosulfonyl-4-chlorophenyl)-N4-(4-cyanomethoxy)phenyl-5-fluoro-2,4-pyrimidinediamine] | 22.7 µM
Cc1cc(Nc2nc(Nc3ccc(S(N)(=O)=O)cc3)ncc2F)ccc1OCC#N [Compound I-22, N2-(4-Aminosulfonyl)phenyl-N4-(4-cyanomethoxy-3-methyl)phenyl-5-fluoro-2,4-pyrimidinediamine] | 14.4 µM
Cc1cc(Nc2nc(Nc3ccc(S(N)(=O)=O)cc3)ncc2F)cc(C)c1OCC#N [Compound I-25, N2-(4-Aminosulfonyl)phenyl-N4-(4-cyanomethoxy-3,5-dimethyl)phenyl-5-fluoro-2,4-pyrimidinediamine] | 25.3 µM
Cc1cc(Nc2nc(Nc3cccc(S(N)(=O)=O)c3)ncc2F)cc(C)c1OCC#N [Compound I-26, N2-(3-Aminosulfonyl)phenyl-N4-(4-cyanomethoxy-3,5-dimethyl)phenyl-5-fluoro-2,4-pyrimidinediamine] | 4.23 µM
Cc1ccc(Nc2ncc(F)c(Nc3cc(C)c(OCC#N)c(C)c3)n2)cc1S(N)(=O)=O [Compound I-27, N2-(3-Aminosulfonyl-4-methyl)phenyl-N4-(4-cyanomethoxy-3,5-dimethyl)phenyl-5-fluoro-2,4-pyrimidinediamine] | 3.48 µM
COc1cc(Nc2ncc(F)c(Nc3cc(C)c(OCC#N)c(C)c3)n2)ccc1S(N)(=O)=O [Compound I-32, N2-(4-Aminosulfonyl-3-methoxy)phenyl-N4-(4-cyanomethoxy-3,5-dimethyl)phenyl-5-fluoro-2,4-pyrimidinediamine] | 5.5 µM
Cc1cc(COc2ccc(Nc3nc(Nc4cc(C)c(F)c(S(N)(=O)=O)c4)ncc3F)cc2)no1 [Compound I-217, N2-(3-Aminosulfonyl-4-fluoro-5-methylphenyl)-5-fluoro-N4-[4-(5-methylisoxazol-3-yl)methyleneoxyphenyl]-2,4-pyrimidinediamine] | 36.6 µM
Cc1cc(COc2ccc(Nc3nc(Nc4cc(C)c(Cl)c(S(N)(=O)=O)c4)ncc3F)cc2)no1 [Compound I-218, N2-(3-Aminosulfonyl-4-chloro-5-methylphenyl)-5-fluoro-N4-[4-(5-methylisoxazol-3-yl)methyleneoxyphenyl]-2,4-pyrimidinediamine] | 3.27 µM
Cc1cc(COc2ccc(Nc3nc(Nc4ccc(C)c(S(N)(=O)=O)c4)ncc3F)cc2)no1 [Compound I-219, N2-(3-Aminosulfonyl-4-methylphenyl)-5-fluoro-N4-[4-(5-methylisoxazol-3-yl)methyleneoxyphenyl]-2,4-pyrimidinediamine] | 7.16 µM
Cc1cc(COc2ccc(Nc3nc(Nc4cc(Cl)c(C)c(S(N)(=O)=O)c4)ncc3F)cc2F)no1 [Compound I-223, N2-(3-Aminosulfonyl-5-chloro-4-methylphenyl)-5-fluoro-N4-[3-fluoro-4-(5-methylisoxazol-3-yl)methyleneoxyphenyl]-2,4-pyrimidinediamine] | 9.09 µM
Cc1cc(COc2ccc(Nc3nc(Nc4cc(C)c(F)c(S(N)(=O)=O)c4)ncc3F)cc2F)no1 [Compound I-224, N2-(3-Aminosulfonyl-4-fluoro-5-methylphenyl)-5-fluoro-N4-[3-fluoro-4-(5-methylisoxazol-3-yl)methyleneoxyphenyl]-2,4-pyrimidinediamine] | 11.3 µM

Compound | IC50
Cc1cc(COc2ccc(Nc3nc(Nc4ccc(C)c(S(N)(=O)=O)c4)ncc3F)cc2C)no1 [Compound I-234, N2-(3-Aminosulfonyl-4-methylphenyl)-5-fluoro-N4-[3-methyl-4-(5-methylisoxazol-3-yl)methyleneoxyphenyl]-2,4-pyrimidinediamine] | 8.16 µM
CCN(CC)CCNS(=O)(=O)c1cccc(Nc2ncc(F)c(Nc3ccc(OCc4cc(C)on4)c(C)c3)n2)c1 [Compound I-244, N2-[3-(2-N,N-Diethylaminoethyl)aminosulfonylphenyl)-5-fluoro-N4-[3-methyl-4-(5-methylisoxazol-3-yl)methyleneoxyphenyl]-2,4-pyrimidinediamine] | 14.7 µM
CCN(CC)CCNS(=O)(=O)c1ccc(Nc2ncc(F)c(Nc3ccc(OCc4cc(C)on4)c(C)c3)n2)cc1 [Compound I-245, N2-[4-(2-N,N-Diethylaminoethyl)aminosulfonylphenyl)-5-fluoro-N4-[3-methyl-4-(5-methylisoxazol-3-yl)methyleneoxyphenyl]-2,4-pyrimidinediamine] | 16.7 µM
CCN(CC)CCNS(=O)(=O)c1ccc(Nc2ncc(F)c(Nc3ccc(OCc4cc(C)on4)cc3)n2)cc1 [Compound I-246, N2-[4-(2-N,N-Diethylaminoethyl)aminosulfonylphenyl)-5-fluoro-N4-[4-(5-methylisoxazol-3-yl)methyleneoxyphenyl]-2,4-pyrimidinediamine] | 8.88 µM
Cc1noc(COc2cccc(Nc3nc(Nc4cccc(S(N)(=O)=O)c4)ncc3F)c2)n1 [Compound I-252, N2-(3-Aminosulfonylphenyl)-5-fluoro-N4-[3-(3-methyl-1,2,4-oxadiazol-5-yl)methyleneoxyphenyl]-2,4-pyrimidinediamine] | 74.2 µM
Cc1noc(COc2cccc(Nc3nc(Nc4ccc(C)c(S(N)(=O)=O)c4)ncc3F)c2)n1 [Compound I-254, N2-(3-Aminosulfonyl-4-methylphenyl)-5-fluoro-N4-[3-(3-methyl-1,2,4-oxadiazol-5-yl)methyleneoxyphenyl]-2,4-pyrimidinediamine] | 8.96 µM
CNS(=O)(=O)c1cc(Nc2ncc(F)c(Nc3cccc(OCc4nc(C)no4)c3)n2)ccc1C [Compound I-255, 5-Fluoro-N2-[3-(N-methylaminosulfony)-4-methylphenyl]-N4-[3-(3-methyl-1,2,4-oxadiazol-5-yl)methyleneoxyphenyl]-2,4-pyrimidinediamine] | 39.3 µM
Cc1noc(COc2ccc(Nc3nc(Nc4cccc(S(=O)(=O)NCc5oc(=O)oc5C)c4)ncc3F)cc2)n1 [Compound I-257, N2-{3-[(N-5-Methyl-1,3-dioxolene-2-one-4-yl)methylene]aminosulfonylphenyl}-5-fluoro-N4-[4-(3-methyl-1,2,4-oxadiazol-5-yl)methyleneoxyphenyl]-2,4-pyrimidinediamine] | 3.08 µM
Cc1noc(COc2ccc(Nc3nc(Nc4ccc(C)c(S(N)(=O)=O)c4)ncc3F)cc2)n1 [Compound I-259, N2-(3-Aminosulfonyl-4-methylphenyl)-5-fluoro-N4-[4-(3-methyl-1,2,4-oxadiazol-5-yl)methyleneoxyphenyl]-2,4-pyrimidinediamine] | 7.51 µM
CNS(=O)(=O)c1cc(Nc2ncc(F)c(Nc3ccc(OCc4nc(C)no4)cc3)n2)ccc1C [Compound I-260, 5-Fluoro-N2-[3-N-(methyl)aminosulfonyl-4-methylphenyl)-N4-[4-(3-methyl-1,2,4-oxadiazol-5-yl)methyleneoxyphenyl]-2,4-pyrimidinediamine] | 8.44 µM
Cc1noc(COc2ccc(Nc3nc(Nc4cc(C)c(Cl)c(S(N)(=O)=O)c4)ncc3F)cc2)n1 [Compound I-265, N2-(3-Aminosulfonyl-4-chloro-5-methylphenyl)-5-fluoro-N4-[4-(3-methyl-1,2,4-oxadiazol-5-yl)methyleneoxyphenyl]-2,4-pyrimidinediamine] | 4.08 µM
Cc1noc(COc2ccc(Nc3nc(Nc4ccc(S(N)(=O)=O)cc4)ncc3F)cc2)n1 [Compound I-268, N2-(4-Aminosulfonylphenyl)-5-fluoro-N4-(4-[3-methyl-1,2,4-oxadiazol-5-yl]methyleneoxyphenyl)-2,4-pyrimidinediamine] | 5.08 µM
Cc1nc(COc2ccc(Nc3nc(Nc4cccc(S(N)(=O)=O)c4)ncc3F)cc2)no1 [Compound I-276, N2-(3-Aminosulfonyl)phenyl-5-fluoro-N4-[4-(5-methyl-1,2,4-oxadiazol-3-yl)methoxy]phenyl-2,4-pyrimidinediamine] | 8.09 µM
Cc1nnc(COc2ccc(Nc3nc(Nc4cccc(S(N)(=O)=O)c4)ncc3F)cc2)o1 [Compound I-277, N2-(3-aminosulfonylphenyl)-5-fluoro-N4-[4-(5-methyl-1,3,4-oxadiazol-2-yl)methyleneoxyphenyl]-2,4-pyrimidinediamine] | 6.91 µM
Cc1nnc(COc2ccc(Nc3nc(Nc4ccc(F)c(S(N)(=O)=O)c4)ncc3F)cc2)o1 [Compound I-278, N2-(3-Aminosulfonyl-4-fluorophenyl)-5-fluoro-N4-[4-(5-methyl-1,3,4-oxadiazol-2-yl)methyleneoxyphenyl]-2,4-pyrimidinediamine] | 11 µM
